According to US12649712B2, “Indene compounds, pharmaceutical compositions thereof, and their therapeutic applications” (NucMito Pharmaceuticals Co. Ltd., priority 2020, dated 2026):

Test system: alpha-smooth muscle actin (α-SMA)
Assay: Inhibition of TGF-β induced expression of alpha-smooth muscle actin (α-SMA) in CFSC cells, western blot
Type: cell-based
Settings: compound at 10 μM, TGF-β (10 ng/mL), 24 hours, decrease in band intensity vs TGF-β only
Procedure: The ability of a compound to inhibit the TGF-β induced expression of alpha-smooth muscle actin (α-SMA) was evaluated in CCL4-treated fat storing (CFSC) cells. α-SMA is considered as a reliable marker of hepatic stellate cell activation and a key biomarker for liver fibrosis. See, e.g., Meng et al., Nat. Rev. Nephrol. 2016, 12, 325-38; Fabregat et al., FEBS J. 2016, 283, 2219-32.
CFSC cells maintained in a DMEM medium supplemented with 10% fetal bovine serum were seeded to 12-well culture dishes and grown to a confluence of 60-70% the next day. Culture was changed to a serum-free DMEM medium and treated with a compound at 10 μM in the presence of TGF-β (10 ng/mL). The cells were incubated for another 24 hours. All culture was maintained at 37° C. in 5% carbon dioxide.
A NP-40 lysate solution (50 mM Tris (pH 7.4), 150 mM NaCl, 1% NP-40) with EDTA free cocktail added was used to lyse the cells on ice for 30 min. The lysate was collected and centrifuged at 4° C. for 10 min at 12,000 rpm. The pellet was discarded and the supernatant was transferred to a new tube. Cell lysates were loaded with 5×loading buffer and boiled for 10 min, resolved by 10% SDS-polyacrylamide gel electrophoresis (SDS-PAGE), and transferred to PVDF membrane. The membrane was blocked with 5% skim milk in Tris-buffered saline and TWEEN® 20 (TBST; 10 mM Tris-HCl (pH 8.0), 150 mM NaCl, 0.1% TWEEN® 20) for 1 h at room temperature and then incubated with α-SMA and […] antibodies overnight at 4° C. After washing twice with TBST, the membrane was probed with a horseradish […] anti-immunoglobulin (1:5000 dilution) for 1 h at room temperature. After two subsequent rinses in TBST, immunoreactive products were reacted with ECL and visualized by a UVP CHEMSTUDIO™ imaging system. The western blotting bands are quantitated using an ImageJ software. The percentage of inhibition was obtained by calculating the percentage decrease in the band intensity compared to the one treated with TGF-β only.
The results are summarized in Table 1, wherein A represents a value no less of 90% inhibition, B represents a value less than 90% but no less than 80% inhibition, C represents a value less than 80% but no less than 70% inhibition, D represents a value less than 70% but no less than 50% inhibition, and E represents a value less than 50% with a compound at 10 μM.

SMILES	inhibition at 10 µM [%]
CC1=C(CC(=O)O)c2cc(F)ccc2/C1=C\c1ccc(C2CC2)cc1 [Compound B37, 2-[(1Z)-1-[(4-cyclopropylphenyl)methylidene]-5-fluoro-2-methyl-1H-inden-3-yl]acetic acid]	80 to 90
C=C(C)c1ccc(/C=C2/C(C)=C(CC(=O)O)c3cc(F)ccc32)cc1 [Compound B39, 2-[(1Z)-5-fluoro-2-methyl-1-{[4-(prop-1-en-2-yl)phenyl]methylidene}-1H-inden-3-yl]acetic acid]	< 50
CC1=C(CC(=O)O)c2cc(F)ccc2/C1=C\c1ccc(C(C(F)(F)F)C(F)(F)F)cc1 [Compound B42, 2-[(1Z)-5-fluoro-1-{[4-(1,1,1,3,3,3-hexafluoropropan-2-yl)phenyl]methylidene}-2-methyl-1H-inden-3-yl]acetic acid]	80 to 90
CC1=C(CC(=O)N(C)O)c2cc(F)ccc2/C1=C\c1ccc(Oc2ccccc2)cc1 [Compound C1, 2-[(1Z)-5-Fluoro-2-methyl-1-[(4-phenoxyphenyl)methylidene]-1H-inden-3-yl]-N-hydroxy-N-methylacetamide]	80 to 90
CC1=C(CC(=O)N(C)O)c2cc(F)ccc2/C1=C\c1ccc(Oc2ccc(F)cc2)cc1 [Compound C2, 2-[(1Z)-5-Fluoro-1-{[4-(4-fluorophenoxy)phenyl]methylidene}-2-methyl-1H-inden-3-yl]-N-hydroxy-N-methylacetamide]	> 90
CC1=C(CC(=O)N(C)O)c2cc(F)ccc2/C1=C\c1cccc(Oc2ccccc2)c1 [Compound C3, (Z)-2-(5-Fluoro-2-methyl-1-(3-phenoxybenzylidene)-1H-inden-3-yl)-N-hydroxy-N-methylacetamide]	80 to 90
CC1=C(CC(=O)NO)c2cc(F)ccc2/C1=C\c1ccc(Oc2ccc(C(C)C)cc2)cc1 [Compound D1, 2-[(1Z)-5-Fluoro-2-methyl-1-({4-[4-(propan-2-yl)phenoxy]phenyl}methylidene)-1H-inden-3-yl]-N-hydroxyacetamide]	> 90
CC1=C(CC(=O)O)c2cc(F)ccc2/C1=C\c1ccc(Oc2ccc(C(C)(C)C)cc2)cc1 [Compound D2, 2-[(1Z)-5-Fluoro-2-methyl-1-({4-[4-(tert-butyl)phenoxy]phenyl}methylidene)-1H-inden-3-yl]acetic acid]	> 90
CC1=C(CC(=O)O)c2cc(F)ccc2/C1=C\c1ccc(Oc2cccc(C(C)(C)C)c2)cc1 [Compound D3, 2-[(1Z)-5-Fluoro-2-methyl-1-({4-[3-(tert-butyl)phenoxy]phenyl}methylidene)-1H-inden-3-yl]acetic acid]	> 90
CC1=C(CC(=O)O)c2cc(F)ccc2/C1=C\c1ccc(Oc2ccc(C)c(F)c2)cc1 [Compound D4, 2-[(1Z)-5-Fluoro-2-methyl-1-({4-[3-fluoro-4-methylphenoxy]phenyl}-methylidene)-1H-inden-3-yl]acetic acid]	< 50
CC1=C(CC(=O)O)c2cc(F)ccc2/C1=C\c1ccc(Oc2ccc(F)c(F)c2)cc1 [Compound D5, 2-[(1Z)-5-Fluoro-2-methyl-1-({4-[3,4-difluorophenoxy]phenyl}methylidene)-1H-inden-3-yl]acetic acid]	> 90
CC1=C(CC(=O)O)c2cc(F)ccc2/C1=C\c1ccc(Oc2cccc([N+](=O)[O-])c2)cc1 [Compound D6, 2-[(1Z)-5-Fluoro-2-methyl-1-({4-[3-nitrophenoxy]phenyl}methylidene)-1H-inden-3-yl]acetic acid]	< 50
CC1=C(CC(=O)O)c2cc(F)ccc2/C1=C\c1ccc(Oc2ccc(C(F)(F)F)cc2)cc1 [Compound D7, 2-[(1Z)-5-Fluoro-2-methyl-1-({4-[4-(trifluoromethyl)phenoxy]phenyl}-methylidene)-1H-inden-3-yl]acetic acid]	> 90
CC(C)CC1=C(CC(=O)O)c2cc(F)ccc2/C1=C\c1ccc(Oc2ccc(F)cc2)cc1 [Compound D8, 2-[(1Z)-5-Fluoro-1-{[4-(4-fluorophenoxy)phenyl]methylidene}-2-(2-methylpropyl)-1H-inden-3-yl]acetic acid]	> 90
O=C(O)CC1=C(Cc2ccccc2)/C(=C/c2ccc(Oc3ccc(F)cc3)cc2)c2ccc(F)cc21 [Compound D9, 2-[(1Z)-5-Fluoro-2-benzyl-1-({4-[4-fluorophenoxy]phenyl}methylidene)-1H-inden-3-yl]acetic acid]	< 50
COc1ccc2c(c1)C(CC(=O)O)=C(C)/C2=C/c1ccc(Oc2ccc(F)cc2)cc1 [Compound D10, 2-[(1Z)-5-Methoxy-2-methyl-1-({4-[4-fluorophenoxy]phenyl}methylidene)-1H-inden-3-yl]acetic acid]	> 90
COc1ccc2c(c1)C(CC(=O)O)=C(C)/C2=C/c1ccc(Oc2ccccc2)cc1 [Compound D11, 2-[(1Z)-5-Methoxy-2-methyl-1-[(4-phenoxyphenyl)methylidene]-1H-inden-3-yl]acetic acid]	> 90
CC1=C(CC(=O)O)c2cc(F)ccc2/C1=C\c1ccc(Oc2ccc(F)cc2)cc1C(F)(F)F [Compound D12, 2-[(1Z)-1-{[2-Trifluoromethyl-4-(4-fluorophenoxy)phenyl]methylidene}-5-fluoro-2-methyl-1H-inden-3-yl]acetic acid]	< 50
CC1=C(CC(=O)O)c2cc(F)ccc2/C1=C\c1ccc(Oc2ccc(F)cc2)c(C)c1 [Compound D13, 2-[(1Z)-1-{[3-Methyl-4-(4-fluorophenoxy)phenyl]methylidene}-5-fluoro-2-methyl-1H-inden-3-yl]acetic acid]	< 50
CC1=C(CC(=O)O)c2cc(F)ccc2/C1=C\c1ccc(Oc2ccc(F)cc2)cc1C [Compound D14, 2-[(1Z)-1-{[2-Methyl-4-(4-fluorophenoxy)phenyl]methylidene}-5-fluoro-2-methyl-1H-inden-3-yl]acetic acid]	> 90
CC1=C(CC(=O)O)c2cc(F)cc(F)c2/C1=C\c1ccc(Oc2ccc(F)cc2)cc1 [Compound D15, 2-[(1Z)-5,7-Difluoro-2-methyl-1-({4-[4-fluorophenoxy]phenyl}methylidene)-1H-inden-3-yl]acetic acid]	> 90
CC1=C(CC(=O)O)c2c(F)cc(F)cc2/C1=C\c1ccc(Oc2ccc(F)cc2)cc1 [Compound D16, 2-[(1Z)-4,6-Difluoro-2-methyl-1-({4-[4-fluorophenoxy]phenyl}methylidene)-1H-inden-3-yl]acetic acid]	< 50
CC1=C(CC(=O)O)c2cc(F)ccc2/C1=C\c1cccc(Oc2ccccc2)c1 [Compound D18, (Z)-2-(5-Fluoro-2-methyl-1-(3-phenoxybenzylidene)-1H-inden-3-yl)acetic acid]	> 90
CC1=C(CC(=O)O)c2cc(F)ccc2/C1=C\c1ccccc1Oc1ccccc1 [Compound D19, 2-[(1Z)-5-Fluoro-1-(2-(phenoxy)benzylidene)-2-methyl-1H-inden-3-yl]-acetic acid]	< 50
CC1=C(CC(=O)O)c2cc(F)cc(F)c2/C1=C\c1cccc(Oc2ccccc2)c1 [Compound D20, 2-[(1Z)-5,7-Difluoro-1-(3-(phenoxy)benzylidene)-2-methyl-1H-inden-3-yl]-acetic acid]	> 90
CC1=C(CC(=O)O)c2c(F)cc(F)cc2/C1=C\c1cccc(Oc2ccccc2)c1 [Compound D21, 2-[(1Z)-4,6-Difluoro-1-(3-(phenoxy)benzylidene)-2-methyl-1H-inden-3-yl]-acetic acid]	> 90
